Test results: patent US9776987B2, “Amide derivatives for GPR119 agonist” (CHONG KUN DANG PHARMACEUTICAL CORP., priority 2013, dated 2017)
pEC50: −log10 of the molar value. ≈ marks a conversion by molar mass, not a printed value. Like-named read-outs stand apart in the source and are kept apart here.

How the values were obtained:
[1] = Solubility test of GPR 119 agonist compounds (Nephelostar); assay type: physicochemical; details: aqueous with cosolvent or surfactant or cyclodextrin, kinetic from dmso stock
Experimental: 1. Method of Solubility Test
Each test compounds were dissolved in 5% DMSO aqueous solution as a solvent at several concentrations. When a laser was irradiated to the solution, the particles, which are not dissolved in the solvent, scatter the light. The level of the scattered light is dependent to the number of the particles, so the solubility of the test compound in the solution can be determined using the relationship. As the test equipment, Nephelostar was used.

[2] = biological target: T1, human GPR119 receptor (Homo sapiens, UniProt Q8TDV5); test: Activity test for human GPR119 receptor (GeneBLAzer T-Rex GPR 119 CHO-K1 DA cells); assay type: cell-based; details: for pEC50: human GPR119 receptor expressing CHO-K1 cells, 5 hours treatment, read-out: hGPR119 EC50; for activity for human GPR119 receptor (in words): judgement on the EC50 values of Table 11
T1 construct: host or cells: GeneBLAzer T-Rex GPR 119 CHO-K1 DA cells (CHO-K1)
T1 sequence (Q8TDV5 1-335): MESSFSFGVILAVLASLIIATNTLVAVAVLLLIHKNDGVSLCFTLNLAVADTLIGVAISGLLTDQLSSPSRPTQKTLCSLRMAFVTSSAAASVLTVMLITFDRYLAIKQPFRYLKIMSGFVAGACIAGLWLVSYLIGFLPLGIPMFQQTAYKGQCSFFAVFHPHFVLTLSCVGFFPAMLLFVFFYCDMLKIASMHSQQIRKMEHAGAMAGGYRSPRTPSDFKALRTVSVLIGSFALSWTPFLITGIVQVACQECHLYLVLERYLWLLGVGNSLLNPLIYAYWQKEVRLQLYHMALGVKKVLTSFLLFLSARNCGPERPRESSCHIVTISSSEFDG
Experimental: 1. Human GPR119 Receptor Cell
As a human GPR119 receptor expression cell for this test, the cell line “GeneBLAzer™ T-Rex GPR 119 CHO-K1 DA cells” that is commercially available from Invitrogen, was used. The cell was incubated in the DMEM media containing 1% dialyzed fetal bovine serum etc. The cell incubator was kept at constant temperature and constant humidity of 37° C., 5% CO2.
2. Activity Test for Human GPR119 Receptor
The human GPR119 receptor expressing cell was used to this test. Each of test compounds was added to be final concentrations of 0.1, 1, 10 μM in 96 well and tested in duplicate. A fixed amount of cell was added to each well of 96 well separately, and then treated with the test compound for 5 hours. After treatment of color development agent for 2 hours, the fluorescence value was determined with plate reader. To the luminous wavelength of control well, which was not treated with the sample, but in which only a vehicle […] was contained, the ratio of the luminous wavelength of test well, which was treated with the sample, was calculated, and then converted to obtain EC50 value.
3. Statistical Processing
All the results were expressed as mean±SD, and each test groups and the control group were compared using student's t-test to adjudge the effects of each test groups.

[3] = pH 2, 5% DMSO aqueous solution, read-out: Solubility pH 2
[4] = pH 4, 5% DMSO aqueous solution, read-out: Solubility pH 4
[5] = pH 6, 5% DMSO aqueous solution, read-out: Solubility pH 6
[6] = pH 8, 5% DMSO aqueous solution, read-out: Solubility pH 8

Row | Structure (SMILES) | solubility [1, 3] | solubility [1, 4] | solubility [1, 5] | solubility [1, 6] | pEC50 [2] | activity for human GPR119 receptor (in words) [2]
1 | CC(C)(F)CN1CCC(COc2ccc(-c3ccc(C(=O)N4C[C@H](O)C[C@@]4(C)C(N)=O)c(F)c3)cc2C#N)CC1 [Compound 1276, (2S,4R)-1-(3′-cyano-3-fluoro-4′-((1-(2-fluoro-2-methylpropyl)piperidin-4-yl)methoxy)biphenylcarbonyl)-4-hydroxy-2-methylpyrrolidin-2-carboxamide] | – | – | – | – | 7.62 | –
2 | NC(=O)[C@@H]1C[C@@H](O)CN1C(=O)c1ccc(-c2ccc(OCC3CCN(CC4(C(F)(F)F)CCC4)CC3)cn2)cc1F [Compound 1280, (2S,4R)-1-(2-fluoro-4-(5-((1-((1-(trifluoromethyl)cyclobutyl)methyl)piperidin-4-yl)methoxy)pyridin-2-yl)benzoyl)-4-hydroxypyrrolidin-2-carboxamide] | – | – | – | – | 7.42 | excellent activity
3 | CCC(F)(CC)CN1CCC(COc2ccc(-c3ccc(C(=O)N4C[C@H](O)C[C@H]4C(N)=O)cc3F)nc2)CC1 [Compound 1287, (2S,4R)-1-(4-(5-((1-(2-ethyl-2-fluorobutyl)piperidin-4-yl)methoxy)pyridin-2-yl)-3-fluorobenzoyl)-4-hydroxypyrrolidin-2-carboxamide] | – | – | – | – | 7.70 | –
4 | CCC(F)(CC)CN1CCC(COc2ccc(-c3ccc(C(=O)N4C[C@H](O)C[C@@]4(C)C(N)=O)cc3F)nc2)CC1 [Compound 1292, (2S,4R)-1-(4-(5-((1-(2-ethyl-2-fluorobutyl)piperidin-4-yl)methoxy)pyridin-2-yl)-3-fluorobenzoyl)-4-hydroxy-2-methylpyrrolidin-2-carboxamide] | > 279 µg/mL | > 279 µg/mL | > 279 µg/mL | > 279 µg/mL | 7.92 | –
5 | CC(C)(CN1CCC(COc2ccc(-c3ccc(C(=O)N4C[C@H](O)C[C@@]4(C)C(N)=O)c(F)c3)cn2)CC1)C(F)(F)F [Compound 1295, (2S,4R)-1-(2-fluoro-4-(6-((1-(3,3,3-trifluoro-2,2-dimethylpropyl)piperidin-4-yl)methoxy)pyridin-3-yl)benzoyl)-4-hydroxy-2-methylpyrrolidin-2-carboxamide] | – | – | – | – | 7.74 | excellent activity
6 | CCC(F)(CC)CN1CCC(COc2ccc(-c3ccc(C(=O)N4CCC[C@@]4(C)C(N)=O)c(F)c3)nc2)CC1 [Compound 1299, (S)-1-(4-(5-((1-(2-ethyl-2-fluorobutyl)piperidin-4-yl)methoxy)pyridin-2-yl)-2-fluorobenzoyl)-2-methylpyrrolidin-2-carboxamide] | – | – | – | – | 8.05 | excellent activity
7 | CCC(F)(CC)CN1CCC(COc2ccc(-c3ccc(C(=O)N4C[C@H](O)C[C@@]4(C)C(N)=O)cc3)nc2)CC1 [Compound 1309, (2S,4R)-1-(4-(5-((1-(2-ethyl-2-fluorobutyl)piperidin-4-yl)methoxy)pyridin-2-yl)benzoyl)-4-hydroxy-2-methylpyrrolidin-2-carboxamide] | – | – | – | – | 7.33 | –
8 | NC(=O)[C@@H]1C[C@@H](O)CN1C(=O)c1ccc(-c2ccc(OCC3CCN(CC4(C(F)(F)F)CCC4)CC3)nc2)cc1F [Compound 1317, (2S,4R)-1-(2-fluoro-4-(6-((1-((1-(trifluoromethyl)cyclobutyl)methyl)piperidin-4-yl)methoxy)pyridin-3-yl)benzoyl)-4-hydroxypyrrolidin-2-carboxamide] | – | – | – | – | 7.22 | –
9 | CCC(F)(CC)CN1CCC(COc2ccc(-c3ccc(C(=O)N4C[C@H](O)C[C@@H]4C(N)=O)cc3F)cc2)CC1 [Compound 1321, (2R,4R)-1-(4′-((1-(2-ethyl-2-fluorobutyl)piperidin-4-yl)methoxy)-2-fluorobiphenylcarbonyl)-4-hydroxypyrrolidin-2-carboxamide] | – | – | – | – | 7.28 | –
10 | C[C@@]1(C(N)=O)C[C@@H](O)CN1C(=O)c1ccc(-c2ccc(OCC3CCN(CC4(C(F)(F)F)CCC4)CC3)nc2)cc1F [Compound 1326, (2S,4R)-1-(2-fluoro-4-(6-((1-((1-(trifluoromethyl)cyclobutyl)methyl)piperidin-4-yl)methoxy)pyridin-3-yl)benzoyl)-4-hydroxy-2-methylpyrrolidin-2-carboxamide] | – | – | – | – | 7.30 | –

The next compounds have a higher pEC50 [2] than those just listed; values first:

Row | solubility [1, 3] | solubility [1, 4] | solubility [1, 5] | solubility [1, 6] | pEC50 [2] | activity for human GPR119 receptor (in words) [2] | Structure (SMILES)
11 | > 296 µg/mL | > 296 µg/mL | > 296 µg/mL | 102 µg/mL (≈ 172 µM) | 8.22 | excellent activity | C[C@@]1(C(N)=O)C[C@@H](O)CN1C(=O)c1ccc(-c2ccc(OCC3CCN(CC4(C(F)(F)F)CCC4)CC3)cn2)cc1F [Compound 1290, (2S,4R)-1-(2-fluoro-4-(5-((1-((1-(trifluoromethyl)cyclobutyl)methyl)piperidin-4-yl)methoxy)pyridin-2-yl)benzoyl)-4-hydroxy-2-methylpyrrolidin-2-carboxamide]
12 | – | – | – | – | 8.40 | excellent activity | C[C@@]1(C(N)=O)CCCN1C(=O)c1ccc(-c2ccc(OCC3CCN(CC4(C(F)(F)F)CCC4)CC3)cn2)cc1F [Compound 1297, (S)-1-(2-fluoro-4-(5-((1-((1-(trifluoromethyl)cyclobutyl)methyl)piperidin-4-yl)methoxy)pyridin-2-yl)benzoyl)-2-methylpyrrolidin-2-carboxamide]
13 | > 289 µg/mL | > 289 µg/mL | > 289 µg/mL | 108 µg/mL (≈ 187 µM) | 8.52 | excellent activity | NC(=O)[C@@H]1C[C@@H](O)CN1C(=O)c1ccc(-c2ccc(OCC3CCN(CC4(C(F)(F)F)CCC4)CC3)cn2)c(F)c1 [Compound 1286, (2S,4R)-1-(3-fluoro-4-(5-((1-((1-(trifluoromethyl)cyclobutyl)methyl)piperidin-4-yl)methoxy)pyridin-2-yl)benzoyl)-4-hydroxypyrrolidin-2-carboxamide]
14 | > 271 µg/mL | > 271 µg/mL | 157 µg/mL (≈ 289 µM) | 55 µg/mL (≈ 101 µM) | 8.70 | – | CCC(F)(CC)CN1CCC(COc2ccc(-c3ccc(C(=O)N4C[C@H](O)C[C@H]4C(N)=O)cc3F)cc2)CC1 [Compound 1205]
15 | – | – | – | – | 10.05 | excellent activity | NC(=O)[C@@H]1CCCN1C(=O)c1ccc(-c2ccc(OCC3CCN(CC(F)(F)C(F)(F)F)CC3)cn2)cc1F [Compound 1264, (S)-1-(2-fluoro-4-(5-((1-(2,2,3,3,3-pentafluoropropyl)piperidin-4-yl)methoxy)pyridin-2-yl)benzoyl)pyrrolidin-2-carboxamide]
16 | – | – | – | – | 10.05 | excellent activity | CC(C)(CN1CCC(COc2ccc(-c3ccc(C(=O)N4CCC[C@H]4C(N)=O)c(F)c3)nc2)CC1)C(F)(F)F [Compound 1267, (S)-1-(2-fluoro-4-(5-((1-(3,3,3-trifluoro-2,2-dimethylpropyl)piperidin-4-yl)methoxy)pyridin-2-yl)benzoyl)pyrrolidin-2-carboxamide]
17 | – | – | – | – | 10.05 | excellent activity | CC(C)(CN1CCC(COc2ccc(-c3ccc(C(=O)N4CCC[C@@]4(C)C(N)=O)c(F)c3)nc2)CC1)C(F)(F)F [Compound 1269, (S)-1-(2-fluoro-4-(5-((1-(3,3,3-trifluoro-2,2-dimethylpropyl)piperidin-4-yl)methoxy)pyridin-2-yl)benzoyl)-2-methylpyrrolidin-2-carboxamide]
18 | > 283 µg/mL | > 283 µg/mL | > 283 µg/mL | 54 µg/mL (≈ 95.3 µM) | 10.15 | excellent activity | CC(C)(CN1CCC(COc2ccc(-c3ccc(C(=O)N4C[C@H](O)C[C@H]4C(N)=O)c(F)c3)nc2)CC1)C(F)(F)F [Compound 1268, (2S,4R)-1-(2-fluoro-4-(5-((1-(3,3,3-trifluoro-2,2-dimethylpropyl)piperidin-4-yl)methoxy)pyridin-2-yl)benzoyl)-4-hydroxypyrrolidin-2-carboxamide]
19 | – | – | – | – | 10.30 | excellent activity | NC(=O)[C@@H]1C[C@@H](O)CN1C(=O)c1ccc(-c2ccc(OCC3CCN(CC(F)(F)C(F)(F)F)CC3)cn2)cc1F [Compound 1265, (2S,4R)-1-(2-fluoro-4-(5-((1-(2,2,3,3,3-pentafluoropropyl)piperidin-4-yl)methoxy)pyridin-2-yl)benzoyl)-4-hydroxypyrrolidin-2-carboxamide]
